Source: ChEMBL document CHEMBL4118220, “Design, synthesis and biological evaluation of phosphopeptides as Polo-like kinase 1 Polo-box domain inhibitors” (Bioorg Med Chem, 2018)
pIC50: −log10 of the molar value. Active and inactive are the calls of the source. No cut-off for these calls is given here. Square brackets hold non-standard residues; d marks the D form. Peptide text beside a SMILES is read from it. Phe(3,4-Cl2) = N[C@@H](Cc1ccc(Cl)c(Cl)c1)C(=O)O; Phe(4-Cl) = N[C@@H](Cc1ccc(Cl)cc1)C(=O)O; pT = C[C@@H](OP(=O)(O)O)[C@H](N)C(=O)O

Columns and labels:
HeLa [1] = experiment: Induction of apoptosis in human HeLa cells assessed as necrotic cells at 5 uM after 48 hrs by Annexin V-FITC/propidium iodide staining based flow cytometry (reference value: 0.5%); type: functional
[2] = target: Serine/threonine-protein kinase PLK3 (Homo sapiens, UniProt Q9H4B4); experiment: Inhibition of FITC-GPLATSpTPKNG-OH binding to Plk3 PBD (unknown origin) after 30 mins by fluorescence polarization assay
HeLa [3] = experiment: Induction of apoptosis in human HeLa cells assessed as necrotic cells at 10 uM after 48 hrs by Annexin V-FITC/propidium iodide staining based flow cytometry (reference value: 0.5%); type: functional
HeLa [4] = experiment: Induction of apoptosis in human HeLa cells assessed as late apoptotic cells at 10 uM after 48 hrs by Annexin V-FITC/propidium iodide staining based flow cytometry (reference value: 0%); type: functional
HeLa [5] = experiment: Induction of apoptosis in human HeLa cells assessed as early apoptotic cells at 20 uM after 48 hrs by Annexin V-FITC/propidium iodide staining based flow cytometry (reference value: 0%); type: functional
HeLa [6] = experiment: Induction of apoptosis in human HeLa cells assessed as late apoptotic cells at 20 uM after 48 hrs by Annexin V-FITC/propidium iodide staining based flow cytometry (reference value: 0%); type: functional
HeLa [7] = experiment: Induction of apoptosis in human HeLa cells assessed as early apoptotic cells at 5 uM after 48 hrs by Annexin V-FITC/propidium iodide staining based flow cytometry (reference value: 0%); type: functional
HeLa [8] = experiment: Induction of apoptosis in human HeLa cells assessed as viable cells at 20 uM after 48 hrs by Annexin V-FITC/propidium iodide staining based flow cytometry (reference value: 39.5%); type: functional; settings: read-out: Activity
[9] = target: Serine/threonine-protein kinase PLK2 (Homo sapiens, UniProt Q9NYY3); experiment: Inhibition of FITC-GPMQTSpTPKNG-OH binding to Plk2 PBD (unknown origin) after 30 mins by fluorescence polarization assay
HeLa [10] = experiment: Induction of apoptosis in human HeLa cells assessed as late apoptotic cells at 5 uM after 48 hrs by Annexin V-FITC/propidium iodide staining based flow cytometry (reference value: 0%); type: functional
HeLa [11] = experiment: Induction of apoptosis in human HeLa cells assessed as necrotic cells at 20 uM after 48 hrs by Annexin V-FITC/propidium iodide staining based flow cytometry (reference value: 0.5%); type: functional
HeLa [12] = experiment: Induction of apoptosis in human HeLa cells assessed as viable cells at 5 uM after 48 hrs by Annexin V-FITC/propidium iodide staining based flow cytometry (reference value: 39.5%); type: functional; settings: read-out: Activity
HeLa [13] = experiment: Induction of apoptosis in human HeLa cells assessed as early apoptotic cells at 10 uM after 48 hrs by Annexin V-FITC/propidium iodide staining based flow cytometry (reference value: 0%); type: functional
HeLa [14] = experiment: Cell cycle arrest in human HeLa cells assessed as accumulation at G2/M phase at 5 to 20 uM after 48 hrs by propidium iodide staining based flow cytometry; type: functional
HeLa [15] = experiment: Induction of apoptosis in human HeLa cells assessed as viable cells at 10 uM after 48 hrs by Annexin V-FITC/propidium iodide staining based flow cytometry (reference value: 39.5%); type: functional; settings: read-out: Activity
HeLa [16] = experiment: Induction of apoptosis in human HeLa cells assessed as PARP cleavage after 48 hrs by Western blot analysis; type: functional, cell-based
HeLa [17] = experiment: Induction of morphological changes in human HeLa cells at 5 to 20 uM after 48 hrs by Hoechst 33258 staining based fluorescence microscopy; type: functional, cell-based
HeLa [18] = experiment: Induction of morphological changes in human HeLa cells assessed as nuclei fragmentation at 5 to 20 uM after 48 hrs by Hoechst 33258 staining based fluorescence microscopy; type: functional, cell-based
HeLa [19] = experiment: Induction of morphological changes in human HeLa cells assessed as chromatin condensation at 5 to 20 uM after 48 hrs by Hoechst 33258 staining based fluorescence microscopy; type: functional, cell-based
[20] = Drug uptake in nucleus of human HeLa cells after 3 hrs by DAPI staining based confocal laser scanning microscopy; type: ADME, subcellular
HeLa [21] = experiment: Cell cycle arrest in human HeLa cells assessed as decrease in S phase at 5 to 20 uM after 48 hrs by propidium iodide staining based flow cytometry; type: functional
HeLa [22] = experiment: Decrease in CDK1 expression level in human HeLa cells after 48 hrs by Western blot analysis; type: functional, cell-based
HeLa [23] = experiment: Cell cycle arrest in human HeLa cells assessed as decrease in G2/M phase at 20 uM after 48 hrs by propidium iodide staining based flow cytometry relative to control; type: functional; set-up: scale not given: the % may be the effect or the level left
HeLa [24] = experiment: Induction of apoptosis in human HeLa cells after 48 hrs by Annexin V-FITC/propidium iodide staining based flow cytometry; type: functional, cell-based
HeLa [25] = experiment: Cell cycle arrest in human HeLa cells assessed as decrease in G0/G1 phase at 5 to 20 uM after 48 hrs by propidium iodide staining based flow cytometry; type: functional
HeLa [26] = experiment: Cell cycle arrest in human HeLa cells assessed as decrease in G2/M phase at 20 uM after 12 hrs by propidium iodide staining based flow cytometry relative to control; type: functional
HeLa [27] = experiment: Induction of apoptosis in human HeLa cells assessed as caspase 3 cleavage after 48 hrs by Western blot analysis; type: functional, cell-based
HeLa [28] = experiment: Cell cycle arrest in human HeLa cells assessed as decrease in G2/M phase at 20 uM after 24 hrs by propidium iodide staining based flow cytometry relative to control; type: functional; set-up: scale not given: the % may be the effect or the level left
HeLa [29] = experiment: Decrease in cyclin B1 expression level in human HeLa cells after 48 hrs by Western blot analysis; type: functional, cell-based

Serine/threonine-protein kinase PLK2, sequence (Q9NYY3 whole entry): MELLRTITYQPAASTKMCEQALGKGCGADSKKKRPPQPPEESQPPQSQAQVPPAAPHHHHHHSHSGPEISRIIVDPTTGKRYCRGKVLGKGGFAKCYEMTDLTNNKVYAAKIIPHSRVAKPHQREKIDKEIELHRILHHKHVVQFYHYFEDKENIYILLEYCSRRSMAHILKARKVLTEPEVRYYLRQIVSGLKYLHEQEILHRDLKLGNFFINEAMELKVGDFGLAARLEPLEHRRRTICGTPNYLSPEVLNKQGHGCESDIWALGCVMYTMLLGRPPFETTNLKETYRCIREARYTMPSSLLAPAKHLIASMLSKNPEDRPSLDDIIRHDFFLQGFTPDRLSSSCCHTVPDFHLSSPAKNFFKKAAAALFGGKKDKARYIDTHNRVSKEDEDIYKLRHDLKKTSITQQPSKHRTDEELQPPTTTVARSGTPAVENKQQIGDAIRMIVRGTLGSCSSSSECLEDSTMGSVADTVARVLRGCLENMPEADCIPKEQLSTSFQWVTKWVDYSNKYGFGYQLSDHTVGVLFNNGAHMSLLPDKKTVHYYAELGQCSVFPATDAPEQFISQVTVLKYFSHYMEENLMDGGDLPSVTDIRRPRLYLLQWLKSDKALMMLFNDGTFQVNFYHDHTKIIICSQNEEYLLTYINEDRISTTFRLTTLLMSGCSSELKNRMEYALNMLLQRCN
Serine/threonine-protein kinase PLK3, sequence (Q9H4B4 whole entry): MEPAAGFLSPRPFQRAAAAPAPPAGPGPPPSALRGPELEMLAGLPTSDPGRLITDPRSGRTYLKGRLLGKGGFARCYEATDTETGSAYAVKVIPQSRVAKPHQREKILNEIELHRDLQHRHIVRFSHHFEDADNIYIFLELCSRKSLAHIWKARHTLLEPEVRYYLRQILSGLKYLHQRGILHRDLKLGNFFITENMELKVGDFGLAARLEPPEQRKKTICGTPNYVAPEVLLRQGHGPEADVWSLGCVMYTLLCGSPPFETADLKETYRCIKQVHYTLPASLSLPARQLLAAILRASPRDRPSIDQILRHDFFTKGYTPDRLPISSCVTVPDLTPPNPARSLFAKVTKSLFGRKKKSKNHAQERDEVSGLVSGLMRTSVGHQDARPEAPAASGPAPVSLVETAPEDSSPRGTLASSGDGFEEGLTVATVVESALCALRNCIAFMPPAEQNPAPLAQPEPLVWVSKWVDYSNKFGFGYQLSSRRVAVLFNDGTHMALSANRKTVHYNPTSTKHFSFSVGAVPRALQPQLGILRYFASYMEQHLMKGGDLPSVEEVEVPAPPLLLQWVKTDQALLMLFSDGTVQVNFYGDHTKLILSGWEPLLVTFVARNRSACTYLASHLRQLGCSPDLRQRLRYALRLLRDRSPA

Row | SMILES | Activity (HeLa [1]) | IC50 [2] | Activity (HeLa [3]) | Activity (HeLa [4]) | Activity (HeLa [5]) | Activity (HeLa [6]) | Activity (HeLa [7]) | viability at 20 µM (HeLa [8]) | Activity (HeLa [10]) | Activity (HeLa [11]) | viability at 5 µM (HeLa [12]) | Activity (HeLa [13]) | Activity (HeLa [14]) | viability at 10 µM (HeLa [15]) | IC50 [9] | other results
1 | CC[C@H](C)[C@H](NC(=O)[C@H](C)NC(=O)[C@@H](NC(=O)[C@H](CO)NC(=O)[C@H](Cc1cnc[nH]1)NC(=O)[C@H](CC(C)C)NC(=O)[C@@H]1CCCN1C(=O)[C@@H]1CCCN1C(=O)[C@H](CC(=O)O)NC(=O)[C@H](Cc1ccccc1)NC(C)=O)[C@@H](C)OP(=O)(O)O)C(=O)N[C@@H](Cc1ccc(O)cc1)C(=O)N[C@@H](C)C(=O)N[C@@H](CC(N)=O)C(N)=O (Ac-FDPPLHS[pT]AIYAN-NH2) | 0% | Not Active | 0% | 0% | 0% | 0% | 0% | 100% | 0% | 0% | 100% | 0% | inactive | 100% | – | pIC50 ([9]; read-out: IC50): 4.87
2 | CC[C@H](C)[C@H](NC(=O)[C@H](C)NC(=O)[C@@H](NC(=O)[C@H](CO)NC(=O)[C@H](Cc1cnc[nH]1)NC(=O)[C@H](CC(C)C)NC(=O)[C@@H]1CCCN1C(=O)[C@@H]1CCCN1C(=O)[C@H](CC(=O)O)NC(=O)[C@H](Cc1ccc(OC)cc1)NC(=O)[C@@H](NC(=O)[C@H](CCC(N)=O)NC(C)=O)[C@@H](C)O)[C@@H](C)OP(=O)(O)O)C(=O)N[C@@H](Cc1ccc(O)cc1)C(=O)N[C@@H](C)C(=O)N[C@@H](CC(N)=O)C(N)=O (Ac-QTY(Me)DPPLHS[pT]AIYAN-NH2) | – | Not Active | – | – | – | – | – | – | – | – | – | – | – | – | Not Active | –
3 | CC[C@H](C)[C@H](NC(=O)[C@H](C)NC(=O)[C@@H](NC(=O)[C@H](CO)NC(=O)[C@H](Cc1cnc[nH]1)NC(=O)[C@H](CC(C)C)NC(=O)[C@@H]1CCCN1C(=O)[C@@H]1CCCN1C(=O)[C@H](CC(=O)O)NC(=O)[C@H](Cc1ccc(Cl)c(Cl)c1)NC(=O)[C@@H](NC(=O)[C@H](CCC(N)=O)NC(C)=O)[C@@H](C)O)[C@@H](C)OP(=O)(O)O)C(=O)N[C@@H](Cc1ccc(O)cc1)C(=O)N[C@@H](C)C(=O)N[C@@H](CC(N)=O)C(N)=O (Ac-QT[Phe(3,4-Cl2)]DPPLHS[pT]AIYAN-NH2) | 0.2% | – | 0.2% | 5.9% | 46.9% | 2.1% | 14.6% | 50.8% | 1.6% | 0.1% | 83.7% | 25.2% | 24.37 - 67.66% | 68.6% | Not Active | Activity (HeLa [16]): Active; Activity (HeLa [17]): Active; Activity (HeLa [18]): Active; Activity (HeLa [19]): Active; Drug uptake [20]: Active; Activity (HeLa [21]): Active; Activity (HeLa [22]): Dose-dependent effect; Activity (HeLa [23]): 71%; Activity (HeLa [24]): Dose-dependent effect; Activity (HeLa [25]): Active; Activity (HeLa [26]): inactive; Activity (HeLa [27]): Active; Activity (HeLa [28]): 40%; Activity (HeLa [29]): Dose-dependent effect
4 | CC[C@H](C)[C@H](NC(=O)[C@H](C)NC(=O)[C@@H](NC(=O)[C@H](CO)NC(=O)[C@H](Cc1cnc[nH]1)NC(=O)[C@H](CC(C)C)NC(=O)[C@@H]1CCCN1C(=O)[C@@H]1CCCN1C(=O)[C@H](CC(=O)O)NC(=O)[C@H](Cc1ccc(Cl)cc1)NC(=O)[C@@H](NC(=O)[C@H](CCC(N)=O)NC(C)=O)[C@@H](C)O)[C@@H](C)OP(=O)(O)O)C(=O)N[C@@H](Cc1ccc(O)cc1)C(=O)N[C@@H](C)C(=O)N[C@@H](CC(N)=O)C(N)=O (Ac-QT[Phe(4-Cl)]DPPLHS[pT]AIYAN-NH2) | – | Not Active | – | – | – | – | – | – | – | – | – | – | – | – | Not Active | –
